Reference: the NIST ThermoML archive (doi:10.1016/j.jct.2017.03.006)

Assay: xn = mol fraction of the nth substance listed
Details: Liquid; for mass density: 313.15 K, Vibrating tube method; for viscosity: 323.15 K, 100 kPa, Concentric cylinders viscometry

Cc1ccc(C)c(C)c1 [1,2,4-trimethylbenzene] + CCC(C)O
mass density [kg/m3]
Details | 50000 kPa | 60000 kPa | 70000 kPa | 80000 kPa | 90000 kPa | 100000 kPa | 110000 kPa | 120000 kPa | 130000 kPa | 140000 kPa
x2 = 0 | – | 895 | 899.9 | 904.6 | 909 | 913.3 | 917.4 | 921.4 | 925.2 | 928.9
x2 = 0.1 | – | 890.1 | 895.3 | 900.1 | 904.7 | 909.2 | 913.5 | 917.6 | 921.5 | 925.4
x2 = 0.1989 | – | 884.6 | 889.7 | 894.7 | 899.4 | 903.8 | 908.1 | 912.3 | 916.3 | 920.2
x2 = 0.3011 | – | 878.8 | 884.1 | 889 | 893.6 | 898.1 | 902.5 | 906.7 | 910.7 | 914.4
x2 = 0.4002 | – | 873.1 | 878.3 | 883.3 | 888.1 | 892.5 | 897 | 901.1 | 905.2 | 908.9
x2 = 0.5001 | – | 867.1 | 872.4 | 877.5 | 882.2 | 886.8 | 891.3 | 895.5 | 899.6 | 903.7
x2 = 0.5997 | 855 | 860.6 | 865.9 | 871 | 875.7 | 880.3 | 884.8 | 889.1 | 893.2 | 897.3
x2 = 0.6999 | 848.2 | 853.8 | 859.1 | 864.2 | 869 | 873.6 | 878.1 | 882.4 | 886.6 | 890.2
x2 = 0.7999 | 841.1 | 846.7 | 852.1 | 857.2 | 861.9 | 866.6 | 871.1 | 875.3 | 879.5 | 883.2
x2 = 0.9 | 833.3 | 839 | 844.4 | 849.5 | 854.3 | 859 | 863.5 | 867.7 | 871.9 | 875.6

Details | viscosity [mPa·s]
x2 = 0 | 0.62
x2 = 0.1001 | 0.62
x2 = 0.2261 | 0.614
x2 = 0.3 | 0.616
x2 = 0.3966 | 0.646
x2 = 0.5298 | 0.658
x2 = 0.6001 | 0.71
